Tests used:
[1] = system: intracellular S. epidermidis in Raw 264.7 cells; assay: Intracellular antimicrobial activity assay; type: cell-based
Description: After culture S. epidermidis bacteria were pelleted, re-suspended in 1.5 ml of PBS mixed with 0.5 ml of human serum (H1 serum, Cat […], Bio Whittaker, The Netherlands) and incubated for 20 minutes for opsonization. The inoculum was adjusted to 1.8×10^8 CFU/ml with RPMI. Medium of cells was replaced by 40 μl of the bacterial inoculum (bacteria to cell ratio of 40:1) and phagocytosis was allowed to proceed for 45 minutes. […] Raw 264.7 cells were detached by incubation in 100 μl of RPMI containing 0.5 mM EDTA. Detached cells were transferred to a vial and lysed with 40 μl of 1% saponine by incubation in a waterbath sonicator for 5 minutes (Transsonic 460, Elma Schmldbaur GmbH, Germany). The sonicate was centrifuged, and the pelleted bacteria were washed repeatedly and re-suspended in PBS before quantitative culture of serial 10-fold dilutions. Intracellular surviving S. epidermidis in Raw 264.7 cells were expressed as numbers of CFU per well. […] After illumination, cells were incubated overnight, lysed before quantitative culture of surviving bacteria.

Raw 264.7 cells [2] = assay: Propidium iodide influx, loss of viability of Raw 264.7 cells; type: cell-based, mouse; conditions: TPPS2a 0.25 μg/ml + S. epidermidis (40:1); illuminated for 5 minutes
Description: Raw 264.7 cells were seeded in a 96-well plate (polystyrene Nunclon™ clear TC plate, flat bottom, Greiner, The Netherlands) at a concentration of 1×10^5 cells/well and incubated overnight in RPMI at 37° C. in a humidified atmosphere containing 5% CO2 (unless specified otherwise). The cells were subsequently incubated overnight in 200 μl of RPMI containing gentamicin (15.6 to 1000 μg/ml), or incubated for 2 hours in RPMI containing photosensitizer TPPS2a (0.1 to 0.4 μg/ml) (PCI Biotech AS, Norway) which was replaced with refresh RPMI in order to remove unbound TPPS2a before incubation of another 2 hours. Raw 264.7 cells incubated in RPMI all the time were used as controls. […] After illumination, cells were incubated in refresh RPMI for 24 hours. The effect of gentamicin and of TPPS2a on the metabolic activity of Raw 264.7 cells was tested using MTT at 24 hours after incubation or by WST-1 assay directly and at 24 hours after illumination, respectively, according to the manufacturer's instruction (Cell MTT or WST-1 assay kit, Sigma-Aldrich, The Netherlands). […] The influx of propidium iodide was measured to quantify the loss of cell viability directly or at 24 hours after illumination.

zebrafish embryos [3] = assay: Toxicity of vancomycin alone or combined with TPCS2a and illumination for non-infected zebrafish embryos; type: in vivo; conditions: vancomycin alone, 0.4 to 6.4 ng per non-infected embryo
Description: The toxicity of vancomycin (Vanco) alone or combined with TPCS2a and illumination (T) for non-infected zebrafish embryos was examined. Doses of vancomycin (0.4, 1.6 or 6.4 ng per 1 nl of PBS), or combined with 2.5*10^−3 ng TPCS2a per 1 nl of PBS, were injected per embryo. […] The initial group sizes were 27 to 29 embryos.

Staphylococcus aureus = conditions: vancomycin alone 0.4 ng; 4300 CFU/embryo
Description: To investigate whether PCI enhanced the antimicrobial efficacy of vancomycin against Staphylococcus aureus infection, S. aureus-infected zebrafish embryos were treated with vancomycin alone (0.4 ng) or combined with TPCS2a (2.5*10^−3 ng). PBS mock treatment was used as control. After injections, zebrafish embryos were maintained group-wise in petri-dishes containing E3 medium. The petri-dishes were placed on the Lumisource illumination device and embryos were illuminated for 10 minutes. Initial group sizes were 29 or 30 embryos. The difference between survival of the vancomycin alone group and the vancomycin-TPCS2a/illumination group was analyzed using Log-rank test, *p≤0.033.

zebrafish embryos [4] = assay: Toxicity test of gentamicin alone or combined with TPCS2a in zebrafish embryos; type: in vivo; conditions: for toxicity to zebrafish embryos (survival): graded doses injected per embryo; for maximal non-toxic concentrations: injection at 32 hpf, illumination 10 minutes, survival until 6 dpi
Description: (§1) Injection into the blood circulation of zebrafish embryos via either the blood island or the duct of Cuvier (Benard et al., 2012, Journal of visualized experiments: JoVE, 61) was performed following the injection procedure described earlier (Zhang et al., 2017, supra). The volume of liquid per injection was adjusted to 1 nl for all injections in the present study.
Toxicity test of gentamicin alone or combined with TPCS2a in zebrafish embryos Gentamicin or TPCS2a solution (both in PBS) or mixtures were injected into WT zebrafish embryos at 32 hours post fertilization (hpf). PBS was injected into control embryos. The embryos were protected from light using aluminium foil apart from illumination for 10 minutes using LumiSource, at 34 hpf. Survival of embryos (heartbeat, movement) was monitored daily until 6 dpi.

Raw 264.7 cells [5] = assay: MTT metabolic activity of Raw 264.7 cells (gentamicin cytotoxicity); type: cell-based, mouse; conditions: after incubation of 24 hours
Description: Raw 264.7 cells were seeded in a 96-well plate (polystyrene Nunclon™ clear TC plate, flat bottom, Greiner, The Netherlands) at a concentration of 1×10^5 cells/well and incubated overnight in RPMI at 37° C. in a humidified atmosphere containing 5% CO2 (unless specified otherwise). The cells were subsequently incubated overnight in 200 μl of RPMI containing gentamicin (15.6 to 1000 μg/ml), or incubated for 2 hours in RPMI containing photosensitizer TPPS2a (0.1 to 0.4 μg/ml) (PCI Biotech AS, Norway) which was replaced with refresh RPMI in order to remove unbound TPPS2a before incubation of another 2 hours. Raw 264.7 cells incubated in RPMI all the time were used as controls. The cells were protected from light using aluminium foil apart from illumination of 15 minutes using LumiSource (PCI Biotech AS, Norway). After illumination, cells were incubated in refresh RPMI for 24 hours. The effect of gentamicin and of TPPS2a on the metabolic activity of Raw 264.7 cells was tested using MTT at 24 hours after incubation or by WST-1 assay directly and at 24 hours after illumination, respectively, according to the manufacturer's instruction (Cell MTT or WST-1 assay kit, Sigma-Aldrich, The Netherlands). […] The influx of propidium iodide was measured to quantify the loss of cell viability directly or at 24 hours after illumination.

[6] = system: S. epidermidis strain O-47; assay: MIC and MBC of gentamicin for S. epidermidis in RPMI; type: cell-based; conditions: S. epidermidis O-47; RPMI medium supplemented with 5% fetal calf serum
Text: An “antibacterial agent” is an entity (e.g. a molecule) which has the ability to kill, damage or prevent the replication of selected bacteria under in vitro conditions, e.g. when in direct contact under culture conditions. The bacteria are preferably as described herein. (As referred to herein bacteria are referred to in both the singular and plural. In particular they are referred to in the singular when defining the type of bacteria to be targeted (i.e. the type, e.g. species, applicable to each bacterium) and in the plural when referring to the treatment to which they may be subjected (i.e. treatment of multiple microorganisms).) In particular, the antibacterial activity is assessed by determining the MIC or MBC value against one or more bacteria, e.g. against a Staphylococcus bacteria. Antibacterial activity may be determined by reference to the MIC value, minimum inhibition concentration (MIC), which is defined as the minimum concentration of an antimicrobial agent that inhibits visible growth of micro-organisms in specified liquid media after overnight incubation. Alternatively antibacterial activity may be determined by the minimum bactericidal concentration (MBC) which is the minimum concentration that kills 99.9% of the bacteria during this incubation period. […]

S aureus ATCC 49230 = assay: Treatment of S. aureus-infected zebrafish embryos with gentamicin alone or combined with TPCS2a; type: in vivo; conditions: 0.4, 0.1 or 0.05 ng gentamicin, without or with 2.5*10^−3 ng TPCS2a; illumination 10 minutes
Description: as §1
Wild type zebrafish embryos were intravenously injected with a suitable dose of S aureus ATCC 49230 via the blood island at 30 hpf, and randomly divided into groups for different treatments. At 32 hpf 1 nl of PBS solution containing gentamicin alone (0.05, 0.1 or 0.4 μg/ml) or combined with 0.25 μg/ml TPCS2a (to provide 2.5×10^−3 ng) was intravenously injected. Control embryos received PBS injections. The embryos were protected from light using aluminium foil apart from illumination of 10 minutes, at 34 hpf, and separately maintained in E3 medium, which was refreshed daily. Survival was monitored until 6 dpi.

O=S(=O)(O)c1ccc(-c2c3nc(c(-c4ccccc4)c4ccc([nH]4)c(-c4ccccc4)c4nc(c(-c5ccc(S(=O)(=O)O)cc5)c5ccc2[nH]5)C=C4)C=C3)cc1 [TPPS2a, tetraphenyl porphyrin disulphonate]
intracellular survival of S. epidermidis vs non-treated illuminated group ([1]; TPPS2a only 0.25 μg/ml, with illumination): did not affect intracellular survival of S. epidermidis | reduction of cell viability (influx of propidium iodide) (Raw 264.7 cells [2]): not statistically different from the control group

CN[C@H](CC(C)C)C(=O)N[C@H]1C(=O)N[C@@H](CC(N)=O)C(=O)N[C@H]2C(=O)N[C@H]3C(=O)N[C@H](C(=O)N[C@H](C(=O)O)c4cc(O)cc(O)c4-c4cc3ccc4O)[C@H](O)c3ccc(c(Cl)c3)Oc3cc2cc(c3O[C@@H]2O[C@H](CO)[C@@H](O)[C@H](O)[C@H]2O[C@H]2C[C@](C)(N)[C@H](O)[C@H](C)O2)Oc2ccc(cc2Cl)[C@H]1O [vancomycin]
toxicity to zebrafish embryos (zebrafish embryos [3]): dose-dependent toxicity | survival of S. aureus-infected embryos (Staphylococcus aureus): had no effect on the survival of the infected embryos

gentamicin
toxicity to zebrafish embryos (survival) (zebrafish embryos [4]): dose-dependent toxicity | maximal non-toxic concentrations (zebrafish embryos [4]): 2 ng/embryo | killing of intracellular S. epidermidis ([1]; gentamicin only 1, 10 or 30 μg/ml, regardless of time of illumination): did not kill intracellular S. epidermidis | effect of PCI on the efficacy of gentamicin ([1]; lowest dose of gentamicin, with PCI, in vitro): no effect of PCI | extracellular concentrations that did not reduce the metabolic activity of Raw 264.7 cells (Raw 264.7 cells [5]): up to 250 μg/ml | minimal bactericidal concentration [6]: 0.33 µg/mL | minimal inhibitory concentration [6]: 0.04 µg/mL | survival of S. aureus-infected embryos compared to PBS mock treatment (S aureus ATCC 49230): significantly improved the survival

tetraphenyl chlorin disulphonate [TPCS2a]
toxicity to zebrafish embryos (survival) (zebrafish embryos [4]): dose-dependent toxicity | maximal non-toxic concentrations (zebrafish embryos [4]): 2.5*10^−3 ng/embryo
